1 substance from PMC8022858, “Discovery of bone morphogenetic protein 7-derived peptide sequences that attenuate the human osteoarthritic chondrocyte phenotype” (Molecular Therapy. Methods & Clinical Development, 2021) can be followed below.

The test system of this assay is OA-HACs. As to the kind of experiment: sGAG content of OA-HAC cultures (DMB assay). The format is cell-based, human. The note with it: three individual OA-HAC donors, 100 nM peptide, 24 h, normalized to total protein (Figure 2D). The procedure: Figure 2 Bioactivity of BMP7-derived peptides p[63−82] and p[113−132] on OA-HACs Complete peptide library screening quantitative real-time PCR dataset for peptides p[63−82] and p[113−132] is presented. (A) SOX9, COL2A1, and NKX3-2 mRNA expression in the 18 OA-HAC pool exposed to 1,000, 100, 10, or 1 nM of peptide p[63−82] and p[113−132] is shown and presented relative to control (black bars) and alongside full-length BMP7 (white bars). (B) Similar to (A) but for chondrocyte hypertrophy-associated genes RUNX2, COL10A1, and ALPL. (C) Similar to (A) but for cartilage extracellular matrix remodeling-associated genes MMP13 and ADAMTS5 and inflammation-related genes COX-2 and IL-6. […] (G) In the same OA-HAC pool of 18 OA-HAC donors from the peptide library screening, sequence dependency of peptides p[63−82] and p[113−132] was determined by exposing the OA-HAC pool to scrambled versions of peptides p[63−82] and p[113−132] […] Error bars represent mean ± SEM, and statistical significance for peptide conditions or BMP7 versus control condition as determined by unpaired two-tailed Student’s t test is represented as ∗p < 0.05, ∗∗p < 0.01, and ∗∗∗p < 0.001.
The sGAG content was measured using a modified dimethyl methylene blue (DMB) assay.[58] The absorbance of samples was read at 540 and 595 nm using a spectrophotometer (Multiskan FC; Thermo Fisher Scientific). […]

As for H-AAYYSEGESAFPLNSYMNAT-OH [p[63−82]], the “sulfated glycosaminoglycan (sGAG) content” value is on record as “increased”.
